Assay results as given in US20260021186A1, “Fatty Acid-D-Amino Acid Peptides Conjugates as Anaplerotic Compounds for Use in Treating Propionic Acidemia, Methylmalonic Acidurias, and Energy Metabolic Disorders” (University of Pittsburgh - Of the Commonwealth System of …, priority 2022, published 2026).

Legend:
Type in all cases: cell-based, human
[1] = test system: Fb859 propionic acidemia patient fibroblasts; assay: Lysine succinylation of cellular proteins by immunofluorescence confocal microscopy; conditions: media without glucose
Description: FIG. 7 are immunocytochemistry photomicrographs showing the effect of incubation of Fb859 propionic acidemia patient fibroblasts on for lysine succinylation with 90 μM of PMA010, 90 μM of PMA011, 90 μM of succinic acid, 90 μM of methylmalonic acid, or 90 μM adipic acid for 72 hours. Immunocytochemistry of the fibroblast cells were stained for anti-succinyllysine antibody, anti-MTCO1 antibody and DAPI for nuclei. Instrument: Zeiss LSM 710 confocal Microscopy. Magnification: 40×. The cells were grown in glass coverslips at a seeding density of 3-5×10^4 cells. The media for untreated and treatment groups had no glucose, glutamine or pyruvate, and lipid stripped FBS was included instead of regular FBS. Scale bar=20 μm.
FIGS. 8A-8F are a comparison of lysine succinylation of cellular proteins visualized by immunofluorescence confocal microscopy in a Propionic Acidemia (Fb859) patient untreated (FIG. 8A) and treated with 30 μM and 90 μM of D-Serine (FIG. 8B), 30 µM and 90 μM of PMA007 (FIG. 8C), or 30 μM and 90 μM of PMA010 (FIG. 8D). Scale bar=20 μm. FIG. 8E is a bar graph showing the quantification of the percent change in lysine succinylation (green) signal, from the immunofluorescence confocal micrographs of FIGS. 8B and 8C, in response to the treatment of D-serine and PMA007. FIG. 8F is a bar graph showing the quantification of the percent change in lysine succinylation (green) signal, from the immunofluorescence confocal micrographs of a D-Serine repeat experiment and FIG. 8D, in response to the treatment of D-serine and PMA010. Asterisks indicate statistical significance calculated at the raw data level (n=3); **P<0.01, ***P<0.001, ****P<0.0001 statistically compared to untreated. Statistical analysis used T-test.
Immunohistochemistry: Patient cells were grown in glass coverslips at a seeding density of 3-5×10^4 cells. The media for untreated and treatment groups had no glucose, glutamine or pyruvate, and lipid stripped FBS was included instead of regular FBS. NIH Image J software was used to quantify the fluorescence intensity from 50-60 cells per group. Immunocytochemistry of propionic acidemia patient (Fb859) fibroblast cells lines stained for anti-succinyllysine (Green), anti-MTCO1 (Red), or anti-TOMM20 antibodies, and DAPI (Blue) for nuclei. Instrument: Zeiss LSM 710 confocal Microscopy. Statistical analysis used Tukey multiple range test. ****P<0.0001, [PMA010] (90 μM) treatment group statistically compared to control cells grown in the presence of regular complete DMEM media, untreated and [PMA010] (30 μM) cells grown in the absence of glucose/pyruvate/L-glutamine.

[2] = test system: PA patient cells, Fb859; assay: Measurement of mitochondrial respiration (Seahorse XF MitoStress test, OCR); conditions: FIGS. 12A-12D; 30 μM and 90 μM for 72 h
Description: Measurement of Mitochondrial Respiration Seahorse: Fb859 cells were grown in regular DMEM media until 85-90% confluency. The cells were harvested and seeded at a concentration of 25,000 cells/80 μl (n=8 replicates) in poly-D lysine coated XFe seahorse 96well plate in regular DMEM media and incubated overnight at 37° C. in a 5% CO2 incubator. Following day, the culture media was replaced in designated wells with the following for 72 h:180 μl of Specialty Media A (seahorse XFDMEM base media+10% fat stripped FBS+Glucose+sodium pyruvate+L-glutamine+0.5 mM carnitine). 180 μl of Specialty Media B (scahorse XFDMEM base media+10% stripped FBS+0.5 mM carnitine and no added glucose, sodium pyruvate or glutamine). 180 μl of Specialty media B containing experimental compounds. After 72 h incubation the Specialty media A & B was replaced in respective designated wells with 180 μL Seahorse XF DMEM base media containing glucose, sodium pyruvate. […] OCR was determined (Seahorse XF MitoStress test). Finally, cells were lysed, and protein content was determined. […]
Measurement of Mitochondrial Respiration: Control Fb826 and Patient Fb859 cells were grown in regular DMEM media without adding extra glutamine until 85-90% confluency. […] Oxygen consumption rate (OCR) was determined (Seahorse XF MitoStress test). Finally, cells were lysed, and protein content was determined. […]

[3] = test system: ETC components (UQCRC2, COXII, NDUFB8) in PA cell line Fb859 and MMA cell line Fb857; assay: Detection of ETC components by western blots; conditions: FIG. 11; 72 h treatment
Description: FIG. 11 are western blots showing correction in the signals of Complex III subunit Core 2 48-kDa (UQCRC2), Complex IV subunit II 22-kDa (COXII), and Complex I subunit NDUFB8 18-kDa that is most pronounced in the propionic acidemia (PA) cell line Fb859 compared to the methylmalonic aciduria (MMA) cell line Fb857.
Detection of ETC components by western blots: Same as above, media A for control, and media B for untreated and treated cells in T75 flasks. Amounts of compounds were added appropriately directly to cell culture media when the cultures were about 85-90 confluent. The cultures were allowed to grow for 72 h at 37° C./5% CO2, and then harvested. Harvested cell pellets were stored at −80° C. until immune and enzymatic assay and western blot analyses of OXPHOS subunits. One to 1.5 ml media samples were also stored at −80° C. for.

C[C@@H](NC(=O)CCCCC(=O)O)C(=O)N[C@H](Cc1c[nH]cn1)C(=O)O [PMA010, 6-(((R)-1-(((R)-1-carboxy-2-(1H-imidazol-4-yl)ethyl)amino)-1-oxopropan-2-yl)amino)-6-oxohexanoic acid]
lysine succinylation (green staining) compared to untreated cells ([1]; FIG. 7, 90 μM, 72 hours, glutamine or pyruvate, lipid stripped FBS): obvious increase in the green staining | lysine succinylation (green) signal ([1]; FIGS. 8A-8F, 30 μM and 90 μM, pyruvate, glutamine, stripped FBS): Restoration of lysine succinylation (green) signal | oxygen consumption parameters compared to individual components D-Serine and D-Histidine [2]: improved | correction in the signals of UQCRC2, COXII and NDUFB8 (western blot) [3]: better effect compared to PMA007
